Where a name gives a salt, the structure may show the parent alone.
What was measured:
TNF-α [1] = experiment: LPS-induced TNF-α production in peripheral blood mononuclear cells (secondary screening); format: cell-based; conditions: 4.5 h, TNF-α production in PBMC, LPS 1 μg/ml, ELISA or L929 bioassay
Experimental: (§1) TNF-α production by LPS in peripheral blood mononuclear cells (PBMC) was measured according to the method described by Henry et al (J. Bioorg. Med. Chem. Lett., 8: 3335-3340, 1998). Briefly, blood was collected from healthy donors into Potassium EDTA vacutainer tubes (Vacutest Plast/Becton Dickinson). PBMC were isolated using gradient centrifugation in Ficoll-Paque solution (Pharmacia). Isolated PBMC were suspended in RPMI 1640 culture medium (Gibco BRL, Pasley, UK) containing 10% fetal bovine serum (FBS) (Hyclone, Utah, USA), 100 U/ml penicillin (Sigma Chemical Co. St Louis, Mo.) and 100 μg/ml streptomycin (Sigma Chemical Co. St Louis, Mo.). The cell concentration was adjusted to 1×10^6 cells/ml. The viability as determined by trypan blue dye exclusion was uniformly ≧98%. The cell suspension (100 μl) was added to the wells of a 96-well culture plate. Following cell plating, 79 μl of the culture medium and 1 μl of eight different concentrations of the test compounds (final concentration 0.03, 0.1, 0.3, 1, 3, 10, 30, 100 μM) dissolved in DMSO (dimethylsulfoxide, Sigma, Mo., USA) were added to the cells. The final concentration of DMSO was adjusted to 0.5%. The appropriate DMSO concentration was used as control. Rolipram (30 μM) was used as a standard compound. The plates were incubated for 30 min at 37° C. in an atmosphere of 5% CO2. Finally, 20 μl (10 μg/ml) per well of LPS, (Escherchia coli 0127:B8, Sigma Chemical Co., St. Louis, Mo.) was added, for a final concentration of 1 μg/ml. The plates were incubated at 37° C. for 4.5 h in an atmosphere of 5% CO2. To determine the cytotoxicity of the test compounds, the cell viability was assessed using MTS (3-(4,5-dimethylthiazol-2-yl)-5-(3-carboxymethoxyphenyl)-2-(4-sulfonyl)-2H-tetrazolium) reagent (Promega) after 4.5 h of incubation. Supernatants were harvested and assayed for TNF-α by ELISA as described by the manufacturer (R&D Systems, MN, BD Biosciences Pharmingen) or by cytotoxicity bioassay in L929 cells. The 50% inhibitory concentration (IC50) values were calculated by a nonlinear regression method using GraphPad software (Prism 3.03)

[2] = system: peripheral blood mononuclear cells (PBMC); experiment: Cytotoxicity of test compounds in PBMC, cell viability by MTS reagent; format: cell-based, human
Experimental: as §1

TNF-α [3] = experiment: Whole blood cell culture assay: LPS-induced TNF-α release (primary screening); format: cell-based, human; conditions: Homo sapiens, Whole blood cell; test compound 1 μM; diluted whole blood of healthy donors; LPS 1 μg/ml, 4.5 h; vs DMSO control
Experimental: TNF-α production by lipopolysaccharide (LPS) in whole blood was measured according to the method described by Wilson et al (J. Immunol. Methods, 139: 233-240, 1991). Briefly, blood was collected from healthy donors into potassium EDTA vacutainer tubes (Vacutest Plast/Becton Dickinson) and diluted with RPMI 1640 culture medium (Gibco BRL, Pasley, UK) containing 100 U/ml penicillin and 100 μg/ml streptomycin, (100× solution, Sigma Chemical Co. St Louis, Mo.) with no added serum. The white blood cell count was adjusted to 1×10^6 cells/ml and 100 μl/well of the diluted blood was transferred into 96-well culture plates. Following cell plating, 79 μl of culture medium and 1 μl of the test compounds (final concentration 1 μM) dissolved in DMSO (dimethylsulfoxide, Sigma, Mo., USA) was added to the cells. The final concentration of DMSO was adjusted to 0.5%. 1 μl of vehicle (0.5% DMSO) was used as control. Rolipram (100 μM) was used as a standard compound. The plates were incubated for 30 min at 37° C. in an atmosphere of 5% CO2. Finally, 20 μl (10 μg/ml) per well of LPS (Escherchia coli 0127:B8, Sigma Chemical Co., St. Louis, Mo.) was added, for a final concentration of 1 μg/ml. Plates were incubated at 37° C. for 4.5 h in an atmosphere of 5% CO2. Supernatants were harvested and assayed for TNF-α by ELISA as described by the manufacturer (R&D Systems, MN) or by cytotoxicity bioassay in L929 cells. Percent inhibition of TNF-α release in comparison to the control was calculated.

TNF-α [4] = experiment: LPS-induced TNF-α release in BALB/c mice; format: in vivo; conditions: Mus musculus, LPS 1 mg/kg i.p. 1 h after dosing, plasma TNF-α 1.5 h after LPS, read-out: % inhibition (Mean ± SE*); for inhibition in vivo at 100 mg/kg: 100 mg/kg po; for inhibition in vivo at 30 mg/kg: 30 mg/kg po
Experimental: The protocol described by Fukuda T. et al (Eur. J. Pharmacol., 391: 317-320, 2000) was followed. BALB/c mice were divided into groups of five to ten each. The test compound, suspended in Tween 80-0.5% carboxy methylcellulose (CMC), with a few drops of Tween 80 as wetting agent if necessary, was administered orally (p.o.) to the mice. One hour later, LPS dissolved in sterile, pyrogen-free saline was administered i.p. at the dose of 1 mg/kg. The negative control group received saline as an i.p injection, while all other groups received LPS. Rolipram (30 mg/kg) was used as the standard drug. One and a half hours later, blood was collected in heparin. Plasma was separated by centrifugation at 13000 rpm (Heraeus Biofuge Pico Centrifuge) at room temperature, aliquoted and stored at −70° C. until analysis.
TNF-α levels in the blood samples were assayed using ELISA and % inhibition of TNF-α release compared to the control group was calculated.

SMILES	IC50 (TNF-α [1])	% toxicity (10 μM), 5 h [2]	inhibition at 1 µM (TNF-α [3])	inhibition in vivo at 100 mg/kg (TNF-α [4])	melting point	inhibition in vivo at 30 mg/kg (TNF-α [4])	inhibition in vivo at 10 mg/kg (TNF-α [4]; 10 mg/kg po)
Cc1cc(C(=O)OC(C)C)cc2c1Oc1c(Cl)cc(NC=O)cc1CS2(=O)=O [Example 11, 4-Chloro-2-formylamino-6-methyl-10,10-dioxo-10,11-dihydro-5-oxa-10lambda*6*-thia-dibenzo[a,d]cycloheptene-8-carboxylic acid isopropyl ester]	21 µM	25%	51%	77.9 ± 9.85%	212 to 215 °C	–	–
COC(=O)c1cc(C)c2c(c1)S(=O)(=O)Cc1cc(N3CCN(C(=O)c4ccccc4C)CC3)cc(Cl)c1O2 [Example 24, 4-Chloro-6-methyl-2-[4-(2-methyl-benzoyl)-piperazin-1-yl]-10,10-dioxo-10,11-dihydro-5-oxa-10lambda*6*-thia-dibenzo[a,d]cycloheptene-8-carboxylic acid methyl ester]	3.87 ± 1.42 µM	03%	74%	–	201 to 204 °C	17.6 ± 8.72%	–
COC(=O)c1cc(C)c2c(c1)S(=O)(=O)Cc1cc(N3CCN(S(C)(=O)=O)CC3)cc(Cl)c1O2 [Example 25, 4-Chloro-2-(4-methanesulfonyl-piperazin-1-yl)-6-methyl-10,10-dioxo-10,11-dihydro-5-oxa-10lambda*6*-thia-dibenzo[a,d]cycloheptene-8-carboxylic acid methyl ester]	0.6 µM	18%	–	–	–	33.6 ± 16.5%	–
COC(=O)c1cc(C)c2c(c1)S(=O)(=O)Cc1cc(N3CCN(C(=O)OCc4ccccc4)CC3)cc(Cl)c1O2 [Example 26, 4-(4-Chloro-8-methoxycarbonyl-6-methyl-10,10-dioxo-10,11-dihydro-5-oxa-10lambda*6*-thia-dibenzo[a,d]cyclohepten-2-yl)-piperazine-1-carboxylic acid benzyl ester]	8.05 ± 1.57 µM	00%	85%	68.7 ± 3.68%	170 to 173 °C	–	–
Cc1cc(C(=O)O)cc2c1Oc1c(Cl)cc(N3CCNCC3)cc1CS2(=O)=O [Example 18, 4-Chloro-6-methyl-10,10-dioxo-2-piperazin-1-yl-10,11-dihydro-5-oxa-10lambda*6*-thia-dibenzo[a,d]cycloheptene-8-carboxylic acid]	–	–	–	22.7 ± 8.47%	–	–	–
COC(=O)c1cc(C)c2c(c1)S(=O)(=O)Cc1cc(N3CCN(C=O)CC3)cc(Cl)c1O2 [Example 20, 4-Chloro-2-(4-formyl-piperazin-1-yl)-6-methyl-10,10-dioxo-10,11-dihydro-5-oxa-10lambda*6*-thia-dibenzo[a,d]cycloheptene-8-carboxylic acid methyl ester]	1.1 µM	24%	–	–	–	27.9 ± 17.5%	–
COC(=O)c1cc(C)c2c(c1)S(=O)(=O)Cc1cc(NC=O)cc(Cl)c1O2 [Example 9, 4-Chloro-2-formylamino-6-methyl-10,10-dioxo-10,11-dihydro-5-oxa-10lambda*6*-thia-dibenzo[a,d]cycloheptene-8-carboxylic acid methyl ester]	2.6 µM	09%	31%	–	258 to 262 °C (dec.)	–	–
Cc1cc(C(=O)O)cc2c1Oc1c(Cl)cc(N)cc1CS2(=O)=O [Example 3, 2-Amino-4-chloro-6-methyl-10,10-dioxo-10,11-dihydro-5-oxa-10lambda*6*-thia-dibenzo[a,d]cycloheptene-8-carboxylic acid sodium salt]	–	–	–	40.7 ± 12.7%	–	–	–
COC(=O)c1cc(C)c2c(c1)S(=O)(=O)Cc1cc(N)cc(Cl)c1O2 [Example 1, 2-Amino-4-chloro-6-methyl-10,10-dioxo-10,11-dihydro-5-oxa-10lambda*6*-thia-dibenzo[a,d]cycloheptene-8-carboxylic acid methyl ester]	8.6 µM	12%	–	–	258 to 260 °C	–	64.9 ± 3.97%
Cc1cc(C(=O)O)cc2c1Oc1c(Cl)cc(NC=O)cc1CS2(=O)=O [Example 7, 4-Chloro-2-formylamino-6-methyl-10,10-dioxo-10,11-dihydro-5-oxa-10lambda*6*-thia-dibenzo[a,d]cycloheptene-8-carboxylic acid]	–	–	–	55.8 ± 9.24%	–	–	–
COC(=O)c1cc(C)c2c(c1)S(=O)(=O)Cc1cc(N3CCN(C(C)=O)CC3)cc(Cl)c1O2 [Example 21, 2-(4-Acetyl-piperazin-1-yl)-4-chloro-6-methyl-10,10-dioxo-10,11-dihydro-5-oxa-10lambda*6*-thia-dibenzo[a,d]cycloheptene-8-carboxylic acid methyl ester]	4 µM	44%	–	–	–	54.6 ± 11.7%	–
COC(=O)c1cc(C)c2c(c1)S(=O)(=O)Cc1ccc(N3CCNCC3)c(Cl)c1O2.Cl [Example 32, 4-Chloro-6-methyl-10,10-dioxo-3-piperazin-1-yl-10,11-dihydro-5-oxa-10lambda*6*-thia-dibenzo[a,d]cycloheptene-8-carboxylic acid methyl ester hydrochloride]	0.16 µM	27%	96%	–	235 to 237 °C	–	–
COC(=O)c1cc(C)c2c(c1)S(=O)(=O)Cc1cc(N3CCN(CCO)CC3)cc(Cl)c1O2 [Example 22, 4-Chloro-2-[4-(2-hydroxy-ethyl)-piperazin-1-yl]-6-methyl-10,10-dioxo-10,11-dihydro-5-oxa-10lambda*6*-thia-dibenzo[a,d]cycloheptene-8-carboxylic acid methyl ester]	0.88 µM	16%	–	57.7 ± 5.66%	–	–	–
Cc1cc(C(=O)OC(C)C)cc2c1Oc1c(Cl)cc(N3CCNCC3)cc1CS2(=O)=O.Cl [Example 28, 4-Chloro-6-methyl-10,10-dioxo-2-piperazin-1-yl-10,11-dihydro-5-oxa-10lambda*6*-thia-dibenzo[a,d]cycloheptene-8-carboxylic acid isopropyl ester hydrochloride]	10.5 µM	15%	70%	–	262 to 264 °C	–	–
